One substance from patent US8877208B2 (priority 2008, dated 2014) can be followed below.

“Also recorded” adds a separate entry of the source.

This experiment deals with virus.

As for TRITON-X100, the “biocidal activity against virus (ability to inactivate a virus)” value is recorded as “less biocidal activity; also recorded: less ability to inactivate a virus”.
